From PubChem BioAssay AID504640 (Southern Research Specialized Biocontainment Screening …, 2011)
Activity calls are given as the source filed them. How the calls were made is not given here. Where a SMILES comes first, the peptide text is derived from it. The star is where a group is joined. Cbz = O=C(OCc1ccccc1)*

Tests used:
[1] = test system: THP-1 cell viability, cytotoxicity; assay: cytotoxicity in THP-1 cells, cytotoxicity control, cell-based (AID 504640)
[2] = as above; conditions: THP-1 cell viability, cytotoxicity; at 100 µM (top of the series)

Row | SMILES | CC50 [1] | viability [2]
1 | CCOC(=O)C(C)Sc1ncnc2c1nnn2-c1ccc(F)cc1 (configuration not stated) | 38.7 µM | –
2 | COC(=O)C1CC(=O)N(c2ccc(OCc3ccccc3Cl)cc2)C1 (configuration not stated) | – | 86.1% (inactive)
3 | Cc1cc(Br)ccc1NC(=O)c1cnc(N2CCN(c3ccccn3)CC2)c2ccccc12 | 35.6 µM | –
4 | CC(C)NC(=O)c1sc(=S)n2c1[nH]c(=O)c1ccc(C(=O)NCCc3ccc(Cl)cc3)cc12 | 52.8 µM | –
5 | CC[N+](C)(CC)CCCCOc1ccc2c(c1)C(=O)c1cc(OCCCC[N+](C)(CC)CC)ccc1-2 | 23.1 µM | –
6 | COC(=O)CCc1nc2c(C#N)c(-c3ccc(Cl)cc3)ccn2n1 | – | 108% (inactive)
7 | Cc1ccc2ccc3ccc(C)nc3c2n1 | < 0.2 µM | –
8 | CCC(C)Nc1ccc(NC(C)CC)cc1 (configuration not stated) | 3.31 µM | –
9 | O=C(CSc1nc2ccccc2c(=O)[nH]1)NC1CCCCC1 | – | 92.5% (inactive)
10 | COC(=O)C(Nc1nc(SCC(=O)NC2CCCCC2)nc2ccccc12)c1ccccc1 (configuration not stated) | 50.4 µM | –
11 | COC(=O)c1cc(=O)n(-c2ccc(F)cc2)c(=Nc2ccc(F)cc2)s1 | 17.6 µM | –
12 | CCOC(=O)COc1ccc(/C=C2\NC(=S)N(CC)C2=O)cc1 | – | 89.2% (inactive)
13 | CNc1nc(SCc2ccccc2Cl)nc2c1CCCC2 | 28 µM | –
14 | COC(=O)C(C)Oc1ccc(-c2nccc(-c3ccccn3)n2)cc1 (configuration not stated) | – | 91% (inactive)
15 | COc1cc(NC(=O)C/C(C)=N/NC(=O)c2ccccn2)c(OC)cc1Cl | – | 101% (inactive)
16 | CCOC1OC(=O)C(Cl)=C1Nc1ccccc1C (configuration not stated) | – | 81.1% (inactive)

Row | SMILES | CC50 [1] | viability [2]
17 | Cc1ccc(C(=O)N/N=C(/CC(=O)c2cccs2)C(F)(F)F)cc1 | 40.4 µM | –
18 | S=c1nc[nH]c2nc[nH]c12 | 0.56 µM | –
19 | CCOC(=O)CNC(=O)[C@H](Cc1ccccc1)NC(=O)OCc1ccccc1 (Cbz-Phe-Gly-OEt) | 43.1 µM | –
20 | c1ccc(/N=C2\N=C(Nc3ccccn3)c3ccccc32)nc1 | < 0.2 µM | –
21 | Cc1ccc2c(c1)c(C1=c3ccccc3=NC1=O)c(O)n2C | 12.6 µM | –
22 | CCOC(=O)COn1c2c(c3c4no[n+]([O-])c4ccc31)CCCC2 | – | 92.6% (inactive)
23 | CCOC(=O)c1ccc(NC(=O)Cn2ncc(Cl)c(Cl)c2=O)cc1 | 0.88 µM | –
24 | COC(=O)c1ccc(CNc2c(N3CCCC3)c(=O)c2=O)cc1 | – | 80.7% (inactive)
25 | O=C(/C=C/c1ccccc1)N1CCN(CCN2C(=O)c3cccc4cccc(c34)C2=O)CC1 | 41.2 µM | –
26 | Cc1nc(SCC(=O)NC2CCCCC2)[nH]c(=O)c1C | – | 106% (inactive)
27 | Oc1ccccc1/C=N/Nc1ccnc(SCc2ccccc2)n1 | 44.9 µM | –
28 | Cc1cccc(-c2oc3ccc(-c4ccc5c(c4)OCO5)cc3c2C#Cc2cncn2C)c1 | 35.9 µM | –
29 | Cc1nn2c(NCc3ccccn3)cc(C(C)C)nc2c1-c1ccccc1 | 2.88 µM | –
30 | O=C(NCC(c1cccs1)N1CCOCC1)c1cc([N+](=O)[O-])cc([N+](=O)[O-])c1 (configuration not stated) | 58.4 µM | –
31 | Cc1ccc(NC(=O)C2C3/C=C\CCCCC32)cc1C (configuration not stated) | – | 86.3% (inactive)
32 | Cc1cccc(/C=C/C(=O)c2ccc([N+](=O)[O-])o2)c1 | 6.64 µM | –
